Laboratory results taken from US12570662B2, “Substituted pyrrolo[1,2-b]pyridazines as bifunctional degraders of interleukin-1 receptor-associated kinases” (Nurix Therapeutics, Inc., priority 2021, dated 2026).

Biological target: T1, IRAK4 (Homo sapiens, UniProt Q9NWZ3)
T1 construct: C-terminal HiBiT-tagged Jurkat cells (polyclonal cell line or clone 8D5); endogenous in cells; host or cells: Jurkat cells (polyclonal cell line or clone 8D5), HiBiT-tagged
T1 sequence (Q9NWZ3 1-460): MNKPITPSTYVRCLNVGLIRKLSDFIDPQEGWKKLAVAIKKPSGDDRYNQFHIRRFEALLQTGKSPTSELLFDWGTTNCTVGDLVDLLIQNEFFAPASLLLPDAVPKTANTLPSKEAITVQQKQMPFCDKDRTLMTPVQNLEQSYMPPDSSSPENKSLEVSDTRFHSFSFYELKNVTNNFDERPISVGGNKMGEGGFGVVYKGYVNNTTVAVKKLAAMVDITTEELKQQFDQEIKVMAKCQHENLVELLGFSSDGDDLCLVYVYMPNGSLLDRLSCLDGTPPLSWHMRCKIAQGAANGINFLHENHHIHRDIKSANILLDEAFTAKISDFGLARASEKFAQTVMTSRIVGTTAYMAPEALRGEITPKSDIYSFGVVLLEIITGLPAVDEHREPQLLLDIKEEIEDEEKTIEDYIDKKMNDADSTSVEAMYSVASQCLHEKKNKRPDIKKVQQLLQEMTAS
Experiment: IRAK4 Degradation HiBit Assay
Assay type: cell-based
Conditions: C-terminal HiBiT-tagged Jurkat cells, 4 hrs incubation; for DC50: % IRAK4 remaining, four-parameter fit (IC50 used as DC50); for Dmax: from fit of % IRAK4 remaining, read-out: Dmax
In short: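 Degradation was quantified by luminescence after adding lytic detection reagent containing LgBiT to HiBiT-tagged Jurkat cells (polyclonal or clone 8D5). Cells were treated 4 h at 32 °C across 11 concentrations from 10 μM to 0.1 nM final. Four-parameter curve fitting of % IRAK4 remaining versus DMSO gave DC50 and Dmax.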

Row | SMILES | DC50 [nM] | Dmax [%]
1 | N#Cc1cnn2c(-c3cc(NC4CCC4)c(-c4nnc(N5CC6CCC(C5)N6CC5CCN(c6ccc([C@H]7CCC(=O)NC7=O)cn6)CC5)s4)cn3)ccc2c1 (racemic) [Example 96, rac-7-[4-(cyclobutylamino)-5-(5-{8-[(1-{5-[(3R)-2,6-dioxopiperidin-3-yl]pyridin-2-yl}piperidin-4-yl)methyl]-3,8-diazabicyclo[3.2.1]octan-3-yl}-1,3,4-thiadiazol-2-yl)pyridin-2-yl]pyrrolo[1,2-b]pyridazine-3-carbonitrile] | 83 | 103
2 | CC(C)Nc1cc(-c2ccc3cc(C#N)cnn23)ncc1-c1nnc(N2CC3CCC(C2)N3CC2CCN(c3ccc([C@@H]4CCC(=O)NC4=O)cn3)CC2)s1 (single isomer, unassigned) [Example 122] | 58 | 105
3 | C[C@H](C#N)Nc1cc(-c2ccc3cc(C#N)cnn23)ncc1-c1nnc(N2CC3CCC(C2)N3CC2CCN(c3ccc([C@H]4CCC(=O)NC4=O)cn3)CC2)s1 (single isomer, unassigned) [Example 142] | 12 | 96
4 | CC(C)Nc1cc(-c2ccc3cc(C#N)cnn23)ncc1-c1nnc(N2CCN(CC3CCN(c4ccc(C5CCC(=O)NC5=O)cn4)CC3)CC2)s1 (racemic) [Example 56, rac-7-[5-(5-{4-[(1-{5-[(3R)-2,6-dioxopiperidin-3-yl]pyridin-2-yl}piperidin-4-yl)methyl]piperazin-1-yl}-1,3,4-thiadiazol-2-yl)-4-[(propan-2-yl)amino]pyridin-2-yl]pyrrolo[1,2-b]pyridazine-3-carbonitrile] | 160 | 102
5 | N#Cc1cnn2c(-c3cc(NC4CC4)c(-c4nnc(N5CC6CCC(C5)N6CC5CCN(c6ccc([C@@H]7CCC(=O)NC7=O)cc6)CC5)s4)cn3)ccc2c1 (single isomer, unassigned) [Example 123] | 80 | 96
6 | N#CCNc1cc(-c2ccc3cc(C#N)cnn23)ncc1-c1nnc(N2CC3CCC(C2)N3CC2CCN(c3ccc([C@H]4CCC(=O)NC4=O)cn3)CC2)s1 (racemic) [Example 104, rac-7-{4-[(cyanomethyl)amino]-5-(5-{8-[(1-{5-[(3R)-2,6-dioxopiperidin-3-yl]pyridin-2-yl}piperidin-4-yl)methyl]-3,8-diazabicyclo[3.2.1]octan-3-yl}-1,3,4-thiadiazol-2-yl)pyridin-2-yl}pyrrolo[1,2-b]pyridazine-3-carbonitrile] | 4 | 115
7 | N#Cc1cnn2c(-c3cc(N[C@@H]4CCOC4)c(-c4nnc(N5CC6CCC(C5)N6CC5CCN(c6ccc(C7CCC(=O)NC7=O)cn6)CC5)s4)cn3)ccc2c1 (mixture of isomers) [Example 94, 7-[5-(5-{8-[(1-{5-[(3RS)-2,6-dioxopiperidin-3-yl]pyridin-2-yl}piperidin-4-yl)methyl]-3,8-diazabicyclo[3.2.1]octan-3-yl}-1,3,4-thiadiazol-2-yl)-4-{[(3R)-oxolan-3-yl]amino}pyridin-2-yl]pyrrolo[1,2-b]pyridazine-3-carbonitrile] | 10 | 114
8 | N#Cc1cnn2c(-c3cc(NC4CCOCC4)c(-c4nnc(N5CC6CCC(C5)N6C(=O)C5CCN(c6ccc([C@@H]7CCC(=O)NC7=O)cn6)CC5)s4)cn3)ccc2c1 (racemic) [Example 29, rac-7-(5-{5-[8-(1-{5-[(3R)-2,6-dioxopiperidin-3-yl]pyridin-2-yl}piperidine-4-carbonyl)-3,8-diazabicyclo[3.2.1]octan-3-yl]-1,3,4-thiadiazol-2-yl}-4-[(oxan-4-yl)amino]pyridin-2-yl)pyrrolo[1,2-b]pyridazine-3-carbonitrile] | 9 | 79
9 | N#Cc1cnn2c(-c3cc(NC4CCOCC4)c(-c4nnc(N5CC6CCC(C5)N6CC5CCN(c6ccc([C@H]7CCC(=O)NC7=O)cc6)CC5)s4)cn3)ccc2c1 (single isomer, unassigned) [Example 110] | 50 | 50
10 | N#Cc1cnn2c(-c3cc(NC4CC4)c(-c4nnc(N5CCN(CC6CCN(c7ccc(N8CCC(=O)NC8=O)cc7)CC6)CC5)s4)cn3)ccc2c1 [Example 83, 7-[4-(cyclopropylamino)-5-{5-[4-({1-[4-(2,4-dioxo-1,3-diazinan-1-yl)phenyl]piperidin-4-yl}methyl)piperazin-1-yl]-1,3,4-thiadiazol-2-yl}pyridin-2-yl]pyrrolo[1,2-b]pyridazine-3-carbonitrile] | 52 | 80
11 | N#Cc1cnn2c(-c3cc(N[C@@H]4CCOC4)c(-c4nnc(N5CC6CCC(C5)N6CC5CCN(c6ccc([C@@H]7CCC(=O)NC7=O)cc6)CC5)s4)cn3)ccc2c1 (single isomer, unassigned) [Example 131] | 21 | 110

Now from value to molecule:

Row | DC50 [nM] | Dmax [%] | SMILES
12 | 12 | 109 | CNc1cc(-c2ccc3cc(C#N)cnn23)ncc1-c1nnc([C@H]2CC[C@H](CN3CCC(c4ccc([C@@H]5CCC(=O)NC5=O)cn4)CC3)CC2)s1 (racemic) [Example 38, 7-[4-(methylamino)-5-{5-[(1r,4r)-4-[(4-{5-[(3RS)-2,6-dioxopiperidin-3-yl]pyridin-2-yl}piperidin-1-yl)methyl]cyclohexyl]-1,3,4-thiadiazol-2-yl}pyridin-2-yl]pyrrolo[1,2-b]pyridazine-3-carbonitrile]
13 | 19 | 113 | CNc1cc(-c2ccc3cc(C#N)cnn23)ncc1-c1nnc([C@H]2CC[C@H](N(C)CC3CCN(c4ccc([C@@H]5CCC(=O)NC5=O)cn4)CC3)CC2)s1 (racemic) [Example 52, 7-[4-(methylamino)-5-{5-[(1r,4r)-4-{[(1-{5-[(3RS)-2,6-dioxopiperidin-3-yl]pyridin-2-yl}piperidin-4-yl)methyl](methyl)amino}cyclohexyl]-1,3,4-thiadiazol-2-yl}pyridin-2-yl]pyrrolo[1,2-b]pyridazine-3-carbonitrile]
14 | 19 | 114 | CNc1cc(-c2ccc3cc(C#N)cnn23)ncc1-c1nnc(N2CC3(CCN(C(=O)C4CCN(c5ccc(C6CCC(=O)NC6=O)cn5)CC4)CC3)C2)s1 (racemic) [Example 40, rac-7-(5-{5-[7-(1-{5-[(3R)-2,6-dioxopiperidin-3-yl]pyridin-2-yl}piperidine-4-carbonyl)-2,7-diazaspiro[3.5]nonan-2-yl]-1,3,4-thiadiazol-2-yl}-4-(methylamino)pyridin-2-yl)pyrrolo[1,2-b]pyridazine-3-carbonitrile]
15 | 12 | 103 | N#Cc1cnn2c(-c3cc(NC4CCOCC4)c(-c4nnc(N5CCN(C(=O)CC6CCN(c7ccc(C8CCC(=O)NC8=O)cn7)CC6)CC5)s4)cn3)ccc2c1 (racemic) [Example 18, rac-7-[5-(5-{4-[2-(1-{5-[(3R)-2,6-dioxopiperidin-3-yl]pyridin-2-yl}piperidin-4-yl)acetyl]piperazin-1-yl}-1,3,4-thiadiazol-2-yl)-4-[(oxan-4-yl)amino]pyridin-2-yl]pyrrolo[1,2-b]pyridazine-3-carbonitrile]
16 | 40 | 104 | N#Cc1cnn2c(-c3cc(NC4CCOCC4)c(-c4nnc(N5CCN(CC6CCN(c7ccc([C@H]8CCC(=O)NC8=O)cn7)CC6)CC5)s4)cn3)ccc2c1 (single isomer, unassigned) [Example 30]
17 | 20 | 105 | CCN(CC1CCN(c2ccc([C@@H]3CCC(=O)NC3=O)cn2)CC1)[C@H]1CC[C@H](c2nnc(-c3cnc(-c4ccc5cc(C#N)cnn45)cc3NC)s2)CC1 (racemic) [Example 36, 7-[4-(methylamino)-5-{5-[(1r,4r)-4-{[(1-{5-[(3RS)-2,6-dioxopiperidin-3-yl]pyridin-2-yl}piperidin-4-yl)methyl](ethyl)amino}cyclohexyl]-1,3,4-thiadiazol-2-yl}pyridin-2-yl]pyrrolo[1,2-b]pyridazine-3-carbonitrile]
18 | 42 | 112 | CCNc1cc(-c2ccc3cc(C#N)cnn23)ncc1-c1nnc(N2CCN(CC3CCN(c4ccc(C5CCC(=O)NC5=O)cc4)CC3)CC2)s1 (racemic) [Example 70, rac-7-[5-(5-{4-[(1-{4-[(3R)-2,6-dioxopiperidin-3-yl]phenyl}piperidin-4-yl)methyl]piperazin-1-yl}-1,3,4-thiadiazol-2-yl)-4-(ethylamino)pyridin-2-yl]pyrrolo[1,2-b]pyridazine-3-carbonitrile]
19 | 10 | 112 | CNc1cc(-c2ccc3cc(C#N)cnn23)ncc1-c1nnc(N2CCN(C(=O)C3CCN(c4ccc(C5CCC(=O)NC5=O)cn4)CC3)CC2)s1 (racemic) [Example 51, 7-{5-[5-(4-{1-[5-(2,6-dioxopiperidin-3-yl)pyridin-2-yl]piperidine-4-carbonyl}piperazin-1-yl)-1,3,4-thiadiazol-2-yl]-4-(methylamino)pyridin-2-yl}pyrrolo[1,2-b]pyridazine-3-carbonitrile]
20 | 187 | 103 | CCNc1cc(-c2ccc3cc(C#N)cnn23)ncc1-c1nnc(N2CCN(CC3CCN(c4ccc(C5CCC(=O)NC5=O)cn4)CC3)CC2)s1 (racemic) [Example 68, rac-7-[5-(5-{4-[(1-{5-[(3R)-2,6-dioxopiperidin-3-yl]pyridin-2-yl}piperidin-4-yl)methyl]piperazin-1-yl}-1,3,4-thiadiazol-2-yl)-4-(ethylamino)pyridin-2-yl]pyrrolo[1,2-b]pyridazine-3-carbonitrile]
